Values joined by “and” are separate entries in the source; they are usually repeats but may differ in a detail not shown here. Identical values can stand only once. Like-named read-outs stand apart in the source and are kept apart here.
Key:
HeLa cells = assay: MTT cytotoxicity test on HeLa cells; format: cell-based, human; conditions: MTT; for EC50: Homo sapiens, HeLa; for cytotoxicity / cell viability of HeLa cells at low concentration: 1–10 μg/mL (1 and 10 μg/mL)
Description: Cytotoxic properties of all compounds were determined by 3-(4,5-dimethylthiazol-2-yl)-2,5-diphenyltetrazolium bromide (MTT) test reflecting cell viability. Cytotoxicity screening of all 27 compounds—2-acetylbenzofuran oxime (6) and its oxime ethers (1–5), as well as: 2-acetylthiophene (7–17), cyclohexanone (18–20), acetophenone (21–23), thiazole (24–25), benzothiazole (26–27) oxime ethers—was performed in vitro on human cervical adenocarcinoma (HeLa) cells as the representatives of cancerous cells.
(§1) 2-Acetylbenzofuran, 2-acetylbenzothiophene, 2-acetylthiophene, 2-acetylthiazole, cyclohexanone and acetophenone derivatives were used for in vitro cytotoxicity assays with cervical adenocarcinoma (HeLa), human dermal fibroblasts (HDF), lung epithelial carcinoma (A549), and intestinal epithelial carcinoma (Caco-2) cell lines. A549, Caco-2, and HeLa cells were obtained from Sigma-Aldrich (Germany), and HDF from Biokom (Poland). All cell lines were cultured according to the manufacturer’s protocol under sterile conditions in the presence of 4.9% CO2 at 37 °C. A549 cells were grown in F-12 medium containing 10% fetal bovine serum (FBS) and 1% penicillin/streptomycin. HDF cells were grown in DMEM (low glucose, with 2 mM glutamine) medium containing 10% fetal bovine serum (FBS) and 1% penicillin/streptomycin. Caco-2 cells were grown in EMEM medium containing 10% fetal bovine serum (FBS), 1% non-essential amino acids (NEAA) and 1% penicillin/streptomycin. HeLa cells were grown in DMEM (low glucose, with 2 mM glutamine) medium containing 10% fetal bovine serum (FBS) and 1% gentamycin. After thawing, cells were cultured until they reached sub-confluent state. The cells were then detached using 0.25% trypsin solution and seeded into 24-well or 96-well plates (3 × 10^3 cells per well) for further experiments. After 24 h growth, the tested compounds were added to the cell cultures in concentrations of 1, 10, 50, 100 and 250 μg mL^−1, respectively, and incubated for the next 24 h or 72 h. The MTT test, based on the ability to reduce 3-(4,5-dimethylthiazol 2-yl)-2,5-diphenyltetrazolium bromide (MTT) by mitochondrial dehydrogenases, was performed in triplicate to assess cell metabolic activity and viability. The plates were then read spectrophotometrically at a wavelength of 570 nm. The dose-dependence curves were charted directly on x-/y-axes, with the drug dosages on the x-axis and the cell viability (percentage of viable cells) on the y-axis.

[1] = test system: human dermal fibroblasts (HDF); assay: MTT cytotoxicity test on HDF cells; format: cell-based; conditions: Homo sapiens, Fibroblast, HDF, MTT
Description: (§2) Therefore, compounds showing the highest cytotoxicity (8, 9, 18, 22, 24–27) were further tested on normal human dermal fibroblasts (HDF), A549, Caco-2, and HeLa cells to compare their activity after 24 h and 72 h culture (Figure 5 and Figure 6).
as §1

Caco-2 cells = assay: MTT cytotoxicity test on Caco-2 cells; format: cell-based, human; conditions: Homo sapiens, MTT
Description: as §2, §1

A549 cells = assay: MTT cytotoxicity test on A549 cells; format: cell-based; conditions: Homo sapiens, MTT
Description: as §2, §1

[2] = 24 h, 24 h culture, read-out: EC50 for HeLa Cells
[3] = 72 h, 72 h, read-out: EC50 Value HeLa 72 h
[4] = 24 h, read-out: EC50 Value HDF 24 h
[5] = 72 h, read-out: EC50 Value HDF 72 h
[6] = Caco-2, 24 h, read-out: EC50 Value Caco-2 24 h
[7] = Caco-2, 72 h, read-out: EC50 Value Caco-2 72 h
[8] = A549, 24 h, read-out: EC50 Value A549 24 h
[9] = A549, 72 h, read-out: EC50 Value A549 72 h

## CC(=NOCc1ccc(Cl)cc1Cl)c1cc2ccccc2o1 [Compound 1]
HeLa cells; [2]
  EC50: > 250 µg/mL and > 750 µM

## CC(=NOCc1ccc(C(F)(F)F)cc1)c1cc2ccccc2o1 [Compound 2]
HeLa cells; [2]
  EC50: > 250 µg/mL and > 750 µM

## CC(=NOCc1ccc(Br)cc1)c1cc2ccccc2o1 [Compound 3]
HeLa cells; [2]
  EC50: > 250 µg/mL and > 730 µM

## CC(=NOCc1ccc([N+](=O)[O-])cc1)c1cc2ccccc2o1 [Compound 4]
HeLa cells; [2]
  EC50: > 250 µg/mL and > 810 µM

## CC(=NOCc1c(F)cccc1F)c1cc2ccccc2o1 [Compound 5]
HeLa cells; [2]
  EC50: > 250 µg/mL and > 830 µM

## CC(=NO)c1cc2ccccc2o1 [Compound 6, 2-acetylbenzofuran oxime]
HeLa cells; [2]
  EC50: > 250 µg/mL and > 1.43 mM

## CC(=NOCc1ccc(Cl)cc1Cl)c1cccs1 [Compound 7]
HeLa cells
  cytotoxicity / cell viability of HeLa cells at low concentration: increased cell viability
HeLa cells; [2]
  EC50: > 250 µg/mL and > 830 µM

## CC(=NOCc1ccc(Br)cc1)c1cccs1 [Compound 8]
HeLa cells; [2]
  EC50: 610 µM
HeLa cells; [3]
  EC50: 40 µg/mL and 130 µM
[1]; [4]
  EC50: 127 µg/mL and 410 µM
[1]; [5]
  EC50: 118 µg/mL and 380 µM
Caco-2 cells; [6]
  EC50: 230 µg/mL and 740 µM
Caco-2 cells; [7]
  EC50: 118 µg/mL and 380 µM
A549 cells; [8]
  EC50: 194 µg/mL and 620 µM
A549 cells; [9]
  EC50: 228 µg/mL and 740 µM

## CC(=NOCc1ccc([N+](=O)[O-])cc1)c1cccs1 [Compound 9]
HeLa cells; [2]
  EC50: 460 µM
HeLa cells; [3]
  EC50: 6.9 µg/mL and 20 µM
[1]; [4]
  EC50: 172 µg/mL and 620 µM
[1]; [5]
  EC50: 44.7 µg/mL and 160 µM
Caco-2 cells; [6]
  EC50: 78 µg/mL and 280 µM
Caco-2 cells; [7]
  EC50: 105 µg/mL and 380 µM
A549 cells; [8]
  EC50: 107 µg/mL and 390 µM
A549 cells; [9]
  EC50: 131 µg/mL and 470 µM

## COc1ccc([N+](=O)[O-])c(CON=C(C)c2cccs2)c1 [Compound 10]
HeLa cells; [2]
  EC50: > 250 µg/mL and > 820 µM

## CC(=NOCCN(C)C)c1cccs1 [Compound 11]
HeLa cells; [2]
  EC50: > 250 µg/mL and > 1.18 mM

## CC(=NOCCN1CCOCC1)c1cccs1 [Compound 12]
HeLa cells
  cytotoxicity / cell viability of HeLa cells at low concentration: increased cell viability
HeLa cells; [2]
  EC50: > 250 µg/mL and > 980 µM

## C/C(=N\OCCN)c1cccs1 [Compound 13, (E)-1-(thiophen-2-yl)ethanone O-2-aminoethyl oxime]
HeLa cells; [2]
  EC50: > 250 µg/mL and > 1.36 mM

## CCN(CC)CCO/N=C(\C)c1cccs1 [Compound 14, (E)-1-(thiophen-2-yl)ethanone O-2-(diethylamino)ethyl oxime]
HeLa cells; [2]
  EC50: > 250 µg/mL and > 1.04 mM

## C/C(=N\OCCCN)c1cccs1 [Compound 15, (E)-1-(thiophen-2-yl)ethanone O-3-aminopropyl oxime]
HeLa cells; [2]
  EC50: > 250 µg/mL and > 1.1 mM

## CC(=NOCCCN(C)C)c1cccs1 [Compound 16]
HeLa cells
  cytotoxicity / cell viability of HeLa cells at low concentration: increased cell viability
HeLa cells; [2]
  EC50: > 250 µg/mL and > 1.1 mM

## CC(=NOCC(=O)O)c1cccs1 [Compound 17]
HeLa cells
  cytotoxicity / cell viability of HeLa cells at low concentration: increased cell viability
HeLa cells; [2]
  EC50: > 250 µg/mL and > 1.25 mM

## CN(C)CCON=C1CCCCC1 [Compound 19]
HeLa cells; [2]
  EC50: > 250 µg/mL and > 1.36 mM

## C1CCC(=NOCCN2CCOCC2)CC1 [Compound 20]
HeLa cells; [2]
  EC50: > 250 µg/mL and > 1.1 mM

## CC(=NOCCN(C)C)c1ccccc1 [Compound 23]
HeLa cells; [2]
  EC50: 233 µg/mL and 1.13 mM

## COc1ccc(CO/N=C(\C)c2nccs2)cc1 [Compound 24, (E)-1-(thiazol-2-yl)ethanone O-4-methoxybenzyl oxime]
HeLa cells; [2]
  EC50: 110 µg/mL and 420 µM
HeLa cells; [3]
  EC50: 8.7 µg/mL and 30 µM
[1]; [4]
  EC50: 35.3 µg/mL and 130 µM
[1]; [5]
  EC50: 30.6 µg/mL and 120 µM
Caco-2 cells; [6]
  EC50: > 250 µg/mL and > 950 µM
Caco-2 cells; [7]
  EC50: 69.1 µg/mL and 260 µM
A549 cells; [8]
  EC50: > 250 µg/mL and > 950 µM
A549 cells; [9]
  EC50: 35.7 µg/mL and 140 µM
